From the NIST ThermoML archive (doi:10.1016/j.jct.2011.06.009)
± gives the expanded uncertainty stated by the source.

Assay: refractive index (Na D-line) (dimensionless)
Details: 101.33 kPa, Liquid, Standard Abbe refractometry

| SMILES | refractive index (298.1 K) | refractive index (293.1 K) |
| --- | --- | --- |
| CCCC[n+]1ccc(C)cc1.F[B-](F)(F)F [1-butyl-4-methylpyridinium tetrafluoroborate] | 1.4509 ± 0.0008 |  |
| CCCCc1ccccc1 [butylbenzene] |  | 1.4895 ± 0.0008 |
| CCCCCCCCCCCC [dodecane] |  | 1.422 ± 0.0008 |
| CCCc1ccccc1 [propylbenzene] |  | 1.4915 ± 0.0008 |
